Counter-ions that a name gives are not always drawn. Like-named read-outs stand apart in the source and are kept apart here. Each block holds one compound with its values, some of them ahead of it.
What was measured:
[1] = for Conversion: 1 ml H2O, 1500 mg LiBr, 100 mg spruce powder, 2 mg acid, 140° C., 30 min
[2] = cited from earlier work
[3] = Crystallization/precipitation of glucose by ethanol; assay type: physicochemical; conditions: 400 mg glucose, 2 mL ethanol, 120° C. then cooled to room temperature
Description: Glucose was dissolved in ethanol by heating to 120° C. to facilitate dissolution. The resulting clear solution was then cooled to room temperature with stirring to allow sugar crystallization (or precipitation). Precipitated glucose was filtered and washed with ethanol. However, a small amount of glucose was found dissolved in ethanol, and therefore glucose was not fully recovered. […] The same crystallization operation was carried out as for pure glucose above. […] Almost all other sugars and LiBr were however retained in the ethanol. […] In addition, xylose may negatively affect the crystallization of glucose.

[4] = Extraction of CaBr2 from CaBr2-glucose solution with n-butanol/hexane; assay type: physicochemical
Description: As mentioned above, CaBr2 can work as effectively as LiBr to hydrolyze lignocellulosic biomass. CaBr2 was extracted from glucose with the butanol extraction method as described above (A). […] More than half of the initial glucose was extracted to the solvent phase. […] Only 10 mg glucose was extracted into 5:5 butanol/hexane.

[5] = Extraction of LiBr from LiBr-glucose solution with n-butanol/hexane; assay type: physicochemical; set-up: Glucose retained/extraction steps: unit not given here; conditions: for glucose extracted into the butanol phase: butanol to hexane ratio 7/3; for Glucose retained after extraction: 200 mg glucose and 1500 mg LiBr in 1 mL water; for Glucose extracted / LiBr extracted / LiBr/sugar (separation efficiency): organic phase from the 1st extraction; for LiBr content left in the LiBr-glucose solution: butanol to hexane 7:3
Text: A LiBr-glucose solution was first used to test the butanol extraction.

[6] = test system: Saccharomyces cerevisiae; assay: Glucose fermentation to ethanol in the presence of residual salt; assay type: cell-based
Text: Complete separation of LiBr from sugars is difficult and expensive. Small amounts of LiBr or CaBr2 may be retained in the sugar product stream generated by the processes of this invention. If the sugars are intended for use for fermentation, the residual salt could potentially affect the fermentation. […]

[7] = Hydrolysis of biomass in concentrated solutions of different salts; conditions: for conversion/hydrolysis of polysaccharides (in words): concentration of salt 60%
Description: Hydrolysis of biomass in different metal halide solutions was investigated.

[8] = Solubility in water and organic solvent; assay type: physicochemical; conditions: 60% salt in water
Text: After the extraction, any small amount of LiBr in the sugar stream can be removed by means of ion exchange resin, crystallization, precipitation with anti-solvent, and precipitation with sodium carbonate, as described in Examples herein.

[9] = butanol:hexane 5:5 (v/v), 15 extraction steps
[10] = butanol:hexane 6:4 (v/v), 13 extraction steps
[11] = butanol:hexane 6.5:3.5 (v/v), 12 extraction steps
[12] = butanol:hexane 7:3 (v/v), 10 extraction steps
[13] = butanol:hexane 7.5:2.5 (v/v), 9 extraction steps
[14] = butanol:hexane 8:2 (v/v), 9 extraction steps
[15] = butanol:hexane 8.5:1.5 (v/v), 8 extraction steps
[16] = butanol:hexane 9:1 (v/v), 7 extraction steps
[17] = butanol:hexane 10:0 (v/v), 6 extraction steps
[18] = over the investigated concentrations (0 to 5% w/v)
[19] = salt concentration 2% (w/v), FIG. 9A

SMILES: CC(=O)O [CH3COOH, acetic acid]
Conversion [1]: 90%

Precipitated glucose ([3]; Entry 0: LiBr 0 mg, water 0 μL): 400 mg | Precipitated glucose ([3]; Entry 1: LiBr 50 mg, water 30 μL): 330 mg | Precipitated glucose ([3]; Entry 2: LiBr 50 mg, water 50 μL): 330 mg | Precipitated glucose ([3]; Entry 3: LiBr 50 mg, water 100 μL): 330 mg | Precipitated glucose ([3]; Entry 4: LiBr 50 mg, water 150 μL): 330 mg | Precipitated glucose ([3]; Entry 5: LiBr 100 mg, water 150 μL): 320 mg | Precipitated glucose ([3]; Entry 6: LiBr 150 mg, water 150 μL): 300 mg | Precipitated glucose ([3]; Entry 7: LiBr 200 mg, water 150 μL): 250 mg | glucose extracted into butanol/hexane ([4]; butanol/hexane 5:5, 30 extractions): 10 mg | glucose left in the solution ([4]; butanol/hexane 5:5, 30 extractions, from 200 mg): 190 mg | glucose left in the aqueous phase ([4]; butanol/hexane 7:3, 10 extractions, 1500 mg CaBr2, 1 mL water, 200 mg glucose): approximately 95 mg | glucose extracted into the butanol phase [5]: about 10% | glucose extracted into the butanol phase ([5]; out of 320 mg glucose): ~30 mg | Glucose retained/extraction steps [5, 9]: 12.6 | Glucose retained after extraction [5, 9]: 190 mg | Glucose extracted ([5]; butanol:hexane 5:5): 2 mg | Glucose retained/extraction steps [5, 10]: 14.5 | Glucose retained after extraction [5, 10]: 189 mg | Glucose extracted ([5]; butanol:hexane 6:4): 3 mg | Glucose retained/extraction steps [5, 11]: 16 | Glucose retained after extraction [5, 11]: 187 mg | Glucose extracted ([5]; butanol:hexane 6.5:3.5): 4 mg | Glucose retained/extraction steps [5, 12]: 18.5 | Glucose retained after extraction [5, 12]: 185 mg | Glucose extracted ([5]; butanol:hexane 7:3): 4.5 mg | Glucose retained/extraction steps [5, 13]: 19.4 | Glucose retained after extraction [5, 13]: 175 mg | Glucose extracted ([5]; butanol:hexane 7.5:2.5): 5 mg | Glucose retained/extraction steps [5, 14]: 17.8 | Glucose retained after extraction [5, 14]: 160 mg | Glucose extracted ([5]; butanol:hexane 8:2): 5.5 mg | Glucose retained/extraction steps [5, 15]: 17.5 | Glucose retained after extraction [5, 15]: 140 mg | Glucose extracted ([5]; butanol:hexane 8.5:1.5): 7 mg | Glucose retained/extraction steps [5, 16]: 16.5 | Glucose retained after extraction [5, 16]: 115 mg | Glucose extracted ([5]; butanol:hexane 9:1): 12 mg | Glucose retained/extraction steps [5, 17]: 16 | Glucose retained after extraction [5, 17]: 95 mg | Glucose extracted ([5]; butanol:hexane 10:0): 20 mg
SMILES: O=C[C@H](O)[C@@H](O)[C@H](O)[C@H](O)CO [glucose]
solubility in n-butanol (in words) [2]: insoluble

SMILES: O=P(O)(O)O [H3PO4, phosphoric acid]
Conversion [1]: 95%

SMILES: [Ca+2].[Cl-].[Cl-] [CaCl2, calcium chloride, reference compound]
inhibition on sugar fermentation [6, 18]: does not appear to be inhibitory | Conversion [7]: 70%

SMILES: Cl [HCl, hydrochloric acid]
Conversion [1]: 100%

SMILES: [Cl-].[Li+] [LiCl, reference compound]
temperature at which the solution starts crystallizing [8]: 120 °C | conversion/hydrolysis of polysaccharides (in words) [7]: complete conversion/hydrolysis

SMILES: [Cl-].[Na+] [NaCl, reference compound]
inhibition on sugar fermentation ([6]; salt concentration 5% (w/v)): showed inhibition similar to LiBr

SMILES: [Br-].[Br-].[Ca+2] [CaBr2]
ethanol yield ([6]; compared with LiBr, FIG. 8): higher | inhibition on sugar fermentation [6, 18]: generally less inhibitory | inhibition on sugar fermentation [6, 19]: more inhibitory than NaCl and CaCl2 | inhibition on sugar fermentation ([6]; salt concentration 5% (w/v)): Inhibition became more significant | CaBr2 left in the solution ([4]; butanol/hexane 5:5, 30 extractions, from 1500 mg): 70 mg | conversion/hydrolysis of polysaccharides (in words) [7]: complete conversion/hydrolysis

SMILES: [Br-].[Li+] [LiBr, Lithium bromide]
inhibition on sugar fermentation [6, 19]: more inhibitory than NaCl and CaCl2 | inhibition on sugar fermentation ([6]; salt concentration 5% (w/v)): the inhibition was significant | inhibition on sugar fermentation ([6]; salt concentration below 5% (w/v), FIG. 7): did not have significant inhibition | LiBr content left in the LiBr-glucose solution ([5]; after 10 extractions, from 1500 mg): 250 mg | LiBr content left in the LiBr-glucose solution ([5]; after 20 extractions): 50 mg | LiBr content left in the LiBr-glucose solution ([5]; after 30 extractions): 30 mg | LiBr extracted ([5]; butanol:hexane 5:5): 141 mg | LiBr/sugar (separation efficiency) ([5]; butanol:hexane 5:5): 71 | LiBr extracted ([5]; butanol:hexane 6:4): 152 mg | LiBr/sugar (separation efficiency) ([5]; butanol:hexane 6:4): 51 | LiBr extracted ([5]; butanol:hexane 6.5:3.5): 195 mg | LiBr/sugar (separation efficiency) ([5]; butanol:hexane 6.5:3.5): 49 | LiBr extracted ([5]; butanol:hexane 7:3): 216 mg | LiBr/sugar (separation efficiency) ([5]; butanol:hexane 7:3): 48 | LiBr extracted ([5]; butanol:hexane 7.5:2.5): 231 mg | LiBr/sugar (separation efficiency) ([5]; butanol:hexane 7.5:2.5): 46 | LiBr extracted ([5]; butanol:hexane 8:2): 252 mg | LiBr/sugar (separation efficiency) ([5]; butanol:hexane 8:2): 46 | LiBr extracted ([5]; butanol:hexane 8.5:1.5): 277 mg | LiBr/sugar (separation efficiency) ([5]; butanol:hexane 8.5:1.5): 40 | LiBr extracted ([5]; butanol:hexane 9:1): 310 mg | LiBr/sugar (separation efficiency) ([5]; butanol:hexane 9:1): 26 | LiBr extracted ([5]; butanol:hexane 10:0): 383 mg | LiBr/sugar (separation efficiency) ([5]; butanol:hexane 10:0): 19 | Conversion [7]: 100% | conversion/hydrolysis of polysaccharides (in words) [7]: complete conversion/hydrolysis

SMILES: O=[N+]([O-])O [HNO3, nitric acid]
Conversion [1]: 100% | effectiveness in catalyzing the hydrolysis of spruce (in words) ([1]; 60% LiBr solution): as effective as hydrochloric acid

— patent US9187790B2, “Saccharification of lignocellulosic biomass” (priority 2012, dated 2015)
